What was measured:
[1] = tested on: extracellular interleukin IL-6; test: Contagious aging (bystander effect) model: extracellular IL-6 by ELISA in R6 young fibroblasts treated with product, then MCR20 conditioned medium; format: cell-based, human; conditions: for Extracellular IL-6, N1i: R6 passage young human dermal fibroblasts, treated then placed in contact with MCR20 conditioned medium, compositions diluted in 1,3-propanediol to 0.1% by mass
Description: This method uses a specific antibody for human IL-6 attached to the bottom of the wells of a measuring plate. The samples to be assayed are added to the wells and the IL-6 present in the samples binds to the immobilized antibody. The wells are then washed and another biotinylated anti-human IL-6 antibody is added.
The wells are once again rinsed to remove the nonbound antibody, and streptavidin conjugated to the enzyme HRP (horseradish peroxidase) is added to the wells. The wells are once again rinsed and the HRP substrate tetramethylbenzidine is added to the wells.
The intensity of the color develops proportionately to the amount of IL-6 bound. The “stop” solution changes the color from blue to yellow, and the color intensity is measured at 450 nm by spectrophotometry. The IL-6 concentration is calculated by referring to a calibration range.
The particular process thus comprises the following steps: • Step i) of culturing of culturing human dermal fibroblasts, taken at the R19 passage in T25 flasks, • Step ii) of amplification of the cells obtained on conclusion of step i) to obtain a medium conditioned with senescent cells or “MC R20”. Amplification of the cells obtained on conclusion of step i) is performed by seeding said cells in Petri dishes at 0.3 M/Petri dish. After amplification for 4 days in Petri dishes, the culture medium of all the dishes was changed and then recovered after 48 hours of incubation. This recovered medium corresponds to the medium conditioned with senescent cells containing the SMS mediators (MCR20). • Step iii) of culturing human dermal fibroblasts, taken at the R5 passage in T25 flasks, • a step iv) of amplification of the cells obtained on conclusion of step iii) to obtain to obtain “young” or “R6” cells in the amplification phase, Steps iii) and iv) are performed in parallel with steps i) and ii).

β-galactosidase = test: Contagious aging (bystander effect) model: β-galactosidase activity by X-gal staining in R6 young fibroblasts treated with product, then MCR20 conditioned medium; format: cell-based; conditions: R6 passage young human dermal fibroblasts, treated then placed in contact with MCR20 conditioned medium; compositions diluted in 1,3-propanediol to 0.1% by mass
Description: Measurement of the activity of the β-galactosidase enzyme is performed at the metabolic level, and even more particularly with a measurement involving colorimetric enzymatic detection.
Briefly, the β-galactosidase present in the cells reacts specifically with one of its substrates, X-gal (or 5-bromo-4-chloro-3-indolyl-β-D-galactopyranoside (C14H15BrClNO6)) which is deposited on the cell lawns. This substrate is a galactoside, a galactose heteroside, bonded to a substituted indole nucleus.
The particular process thus comprises the following steps: • Step i) of culturing of culturing human dermal fibroblasts, taken at the R19 passage in T25 flasks, • Step ii) of amplification of the cells obtained on conclusion of step i) to obtain a medium conditioned with senescent cells or “MC R20”. Amplification of the cells obtained on conclusion of step i) is performed by seeding said cells in Petri dishes at 0.3 M/Petri dish. After amplification for 4 days in Petri dishes, the culture medium of all the dishes was changed and then recovered after 48 hours of incubation. […]

O=C1O[C@H]([C@@H](O)CO)C(O)=C1O [vitamin C, ascorbic acid, reference compound]
Extracellular IL-6, N1i [1]: N1i = 27.31 ± 3.87 pg/μg of proteins

CC(=O)Oc1c(C)c(C)c2c(c1C)CC[C@@](C)(CCC[C@H](C)CCC[C@H](C)CCCC(C)C)O2 [vitamin E, D-α-tocopheryl acetate, reference compound]
β-galactosidase, N2i (β-galactosidase): N2i = 2.99 ± 0.45 number of “blue” positive cells/total number of cells

OCCCO [1,3-propanediol]
Ratio R1=[(N10−N1i)×100]/[(N10−N1)] for extracellular IL-6 ([1]; N1 = 8.96 (untreated, unstressed), N10 = 41.38 (untreated, MCR20)): R1 = 13.35 | Extracellular IL-6, N1i [1]: N1i = 37.05 ± 2.57 pg/μg of proteins | β-galactosidase, N2i (β-galactosidase): N2i = 13.40 ± 2.69 number of “blue” positive cells/total number of cells

From US20210382039A1, “METHOD FOR ASSESSING THE ABILITY OF A SUBSTANCE OR OF A COMPOSITION TO PREVENT, SLOW OR ELIMINATE THE SIGNS OF AGEING OF THE SKIN OR OF THE LIPS” (SOCIETE D'EXPLOITATION DE PRODUITS POUR LES INDUSTRIES …, priority 2018, published 2021)
